This assay has as its system 653999-131-R-J2-PDC complex spheroid viability. The assay is described as follows: Anticancer human tumor 653999-131-R-J2-PDC patient-derived lung adenocarcinoma cell line growth inhibition. Conditions: for viability, T/C: stronger effect = lower value. The method in brief: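 Drug combinations with the LSD1 inhibitor iadademstat tested on tumor cells co-cultured as spheroids with endothelial cells and mesenchymal stem cells. Concentrations descended in half-log increments from clinical Cmax or 10 microM.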

The mark [1] stands for this setting: curve of first compound, second compound 0.1 µM.
The mark [2] stands for this setting: curve of first compound, second compound 0.316 µM.
The mark [3] stands for this setting: curve of first compound, second compound 1 µM.
[4] abbreviates: curve of first compound, second compound 3.16 µM.
[5] abbreviates: curve of first compound, second compound 10 µM.
Where [6] appears, read: second compound 0.1 µM, first compound 0.000949 µM.
Setting [7] is: second compound 0.1 µM, first compound 0.003 µM.
The mark [8] stands for this setting: second compound 0.1 µM, first compound 0.00949 µM.
The mark [9] stands for this setting: second compound 0.1 µM, first compound 0.03 µM.
The mark [10] stands for this setting: second compound 0.1 µM, first compound 0.0949 µM.
[11] abbreviates: second compound 0.1 µM, first compound 0.3 µM.
The mark [12] stands for this setting: second compound 0.316 µM, first compound 0.000949 µM.
[13] abbreviates: second compound 0.316 µM, first compound 0.003 µM.
Where [14] appears, read: second compound 0.316 µM, first compound 0.00949 µM.
Where [15] appears, read: second compound 0.316 µM, first compound 0.03 µM.
Where [16] appears, read: second compound 0.316 µM, first compound 0.0949 µM.
Setting [17] is: second compound 0.316 µM, first compound 0.3 µM.
Setting [18] is: second compound 1 µM, first compound 0.000949 µM.
Where [19] appears, read: second compound 1 µM, first compound 0.003 µM.
[20] abbreviates: second compound 1 µM, first compound 0.00949 µM.
The mark [21] stands for this setting: second compound 1 µM, first compound 0.03 µM.
The mark [22] stands for this setting: second compound 1 µM, first compound 0.0949 µM.
Setting [23] is: second compound 1 µM, first compound 0.3 µM.
[24] abbreviates: second compound 3.16 µM, first compound 0.000949 µM.
[25] abbreviates: second compound 3.16 µM, first compound 0.003 µM.
[26] abbreviates: second compound 3.16 µM, first compound 0.00949 µM.
Setting [27] is: second compound 3.16 µM, first compound 0.03 µM.
Where [28] appears, read: second compound 3.16 µM, first compound 0.0949 µM.
Where [29] appears, read: second compound 3.16 µM, first compound 0.3 µM.
Setting [30] is: second compound 10 µM, first compound 0.000949 µM.
Setting [31] is: second compound 10 µM, first compound 0.003 µM.
Where [32] appears, read: second compound 10 µM, first compound 0.00949 µM.
Setting [33] is: second compound 10 µM, first compound 0.03 µM.
Where [34] appears, read: second compound 10 µM, first compound 0.0949 µM.
[35] abbreviates: second compound 10 µM, first compound 0.3 µM.

The structures appear in SMILES notation. Several values for one entry are separate records, joined by “and”; a condition that tells them apart may be missing. Equal entries are not always repeated.

The values that follow come from PubChem BioAssay AID1918939 (Molecular Pharmacology Branch, DTP, NCI, 2023).
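Note: spheroids exposed to agents for seven days before readout.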

For the molecule `CCc1c2c(nc3ccc(O)cc13)-c1cc3c(c(=O)n1C2)COC(=O)[C@]3(O)CC` + NC1CC1c1ccc(-c2cccc(O)c2)cc1, the IC50 is less than 0.000949 µM under setting [1]; less than 0.000949 µM under setting [2]; less than 0.000949 µM under setting [3]; less than 0.000949 µM under setting [4]; less than 0.000949 µM under setting [5]. Further, the viability, T/C runs as follows: under setting [6], 27.2%; under setting [7], 18%; under setting [8], 11.7%; under setting [9], 5.92%; under setting [10], 6.24%; under setting [11], 9.54%. Further, the viability, T/C runs as follows: under setting [12], 27.7%; under setting [13], 21%; under setting [14], 11.2%; under setting [15], 5.65%; under setting [16], 6.29%; under setting [17], 9.28%. Further, the viability, T/C is, setting by setting: under setting [18], 25.6%; under setting [19], 19.9%; under setting [20], 10.6%; under setting [21], 5.85%; under setting [22], 6.63%; under setting [23], 10.5%. For the same molecule, the viability, T/C by setting is: under setting [24], 21.4%; under setting [25], 17.2%; under setting [26], 10.3%; under setting [27], 5.97%; under setting [28], 7.51%; under setting [29], 9.23%. For the same molecule, the viability, T/C is, setting by setting: under setting [30], 23.3%; under setting [31], 13.5%; under setting [32], 12.3%; under setting [33], 6.19%; under setting [34], 4.83%; under setting [35], 9.59%.

Turning to `O=C(C=Cc1cccc(S(=O)(=O)Nc2ccccc2)c1)NO` + NC1CCC(NC2CC2c2ccccc2)CC1, the IC50 under setting [1] came to 0.435 µM; the IC50 under setting [2] stood at 0.538 µM; the IC50 under setting [3] came out at 0.513 µM; the IC50 under setting [4] worked out at 0.501 µM; the IC50 under setting [5] was 0.449 µM. For the same molecule, the viability, T/C under setting [8] was 81.9%; the viability, T/C under setting [9] was 97.9%; the viability, T/C under setting [10] is 108%; the viability, T/C under setting [11] was 56.1%; the viability, T/C (second compound 0.1 µM, first compound 0.949 µM) is 28.6%; the viability, T/C (second compound 0.1 µM, first compound 3 µM) was 3.54%. The viability, T/C runs as follows: under setting [14], 89.3%; under setting [15], 82.6%; under setting [16], 91.4%; under setting [17], 70.3%; (second compound 0.316 µM, first compound 0.949 µM) 29.3%; (second compound 0.316 µM, first compound 3 µM) 3.12%. Further, the viability, T/C runs as follows: under setting [20], 96.4%; under setting [21], 100%; under setting [22], 88.3%; under setting [23], 71.6%; (second compound 1 µM, first compound 0.949 µM) 26.2%; (second compound 1 µM, first compound 3 µM) 2.35%. Further, the viability, T/C is, setting by setting: under setting [26], 98.4%; under setting [27], 83.1%; under setting [28], 92.4%; under setting [29], 61.9%; (second compound 3.16 µM, first compound 0.949 µM) 32.3%; (second compound 3.16 µM, first compound 3 µM) 2.77%. In addition, the viability, T/C under setting [32] was 95.4%; the viability, T/C under setting [33] was 96%; the viability, T/C under setting [34] is 101%; the viability, T/C under setting [35] was 60.3%; the viability, T/C (second compound 10 µM, first compound 0.949 µM) was 25.8%; the viability, T/C (second compound 10 µM, first compound 3 µM) is 3.12%.

For the molecule `NC1CCC(NC2CC2c2ccccc2)CC1` (centres undefined), the viability, T/C reads like this: (compound 0.316 µM) 85.8% and 90%; (compound 1 µM) 86.8% [middle of 25 runs]. For the same molecule, under “compound alone, run of 01/18/2022”, the IC50 is greater than 10 µM.

With `Nc1ccccc1NC(=O)c1ccc(CNC(=O)OCc2cccnc2)cc1`, the viability, T/C (compound 0.00949 µM) was 100% and 112%; the viability, T/C (compound 0.03 µM) is 73.8% and 105%; the viability, T/C (compound 0.0949 µM) was 75% and 76.2%; the viability, T/C (compound 0.3 µM) is 56.3% and 69.2%; the viability, T/C (compound 0.949 µM) was 38.6% and 20.9%; the viability, T/C (compound 3 µM) was 11.8% and 1.21%. Moreover, the IC50 (curve of compound) is 0.402 µM and 0.414 µM.

As for `CC(C)c1c(-c2ccccc2)nc2c(C#N)c[nH]n2c1=O`, the viability, T/C was 98.4% and 88.9% (compound 0.0316 µM); 107% and 94.6% (compound 0.1 µM); 108% and 93.6% (compound 0.316 µM); 116% and 98.2% (compound 1 µM); 109% and 88.9% (compound 3.16 µM); 94.7% and 88.9% (compound 10 µM). Also, the IC50 (curve of compound) is greater than 10 µM.

Consider `Nc1ncn(C2CC(O)C(CO)S2)c(=O)n1` (centres undefined) + NC1CCC(NC2CC2c2ccccc2)CC1, for which the half-maximal inhibitory concentration (IC50) runs as follows: under setting [1], greater than 0.3 µM; under setting [2], greater than 0.3 µM; under setting [3], greater than 0.3 µM; under setting [4], greater than 0.3 µM; under setting [5], greater than 0.3 µM. In addition, the viability, T/C by setting is: under setting [6], 83.8%; under setting [7], 109%; under setting [8], 90.8%; under setting [9], 74.8%; under setting [10], 70.4%; under setting [11], 50.6%. For the same molecule, the viability, T/C is 86.6% under setting [12]; 81.6% under setting [13]; 87.5% under setting [14]; 74.5% under setting [15]; 58% under setting [16]; 51.9% under setting [17]. Moreover, the viability, T/C was 89.5% under setting [18]; 94% under setting [19]; 86.3% under setting [20]; 78.7% under setting [21]; 67.8% under setting [22]; 55.5% under setting [23]. The viability, T/C under setting [24] was 99%; the viability, T/C under setting [25] was 92%; the viability, T/C under setting [26] was 85.8%; the viability, T/C under setting [27] is 81.3%; the viability, T/C under setting [28] is 68.2%; the viability, T/C under setting [29] is 54.7%. Moreover, the viability, T/C runs as follows: under setting [30], 88.9%; under setting [31], 112%; under setting [32], 88.8%; under setting [33], 84.7%; under setting [34], 63.7%; under setting [35], 58.6%.

Consider `NS(=O)(=O)OCC1CC(n2ccc3c(NC4CCc5ccccc54)ncnc32)CC1O` (centres undefined), for which the viability, T/C is, setting by setting: (compound 0.00949 µM) 115% and 114%; (compound 0.03 µM) 98.1% and 121%; (compound 0.0949 µM) 91.9% and 121%; (compound 0.3 µM) 99.7% and 70.9%; (compound 0.949 µM) 54.7% and 62.8%; (compound 3 µM) 55.3% and 60%. The IC50 (curve of compound) was greater than 3 µM.

One may read the IC50 as the concentration at which inhibition is half-maximal. As a reminder, the viability, T/C is the ratio of treated to control.
